In US9834512B2, “(22E)-2-methylene-26,27-cyclo-22-dehydro-1α-hydroxy-19-norvitamin D3 derivatives” (WISCONSIN ALUMNI RESEARCH FOUNDATION, priority 2011, dated 2017):
“Also recorded” adds a separate entry of the source. Read-outs that look alike come from different tables or passages of the source.

Legend:
Sprague-Dawley rats [1] = test: Bone calcium mobilization (serum calcium); assay type: in vivo, rat; conditions: for Bone calcium mobilization activity: rat, intraperitoneal, at the doses tested
Procedure: (§1) Male, weanling Sprague-Dawley rats were placed on Diet 11 (0.47% Ca) diet+AEK oil for one week followed by Diet 11 (0.02% Ca)+AEK oil for 3 weeks. The rats were then switched to a diet containing 0.47% Ca for one week followed by two weeks on a diet containing 0.02% Ca. Dose administration began during the last week on 0.02% calcium diet. Four consecutive intraperitoneal doses were given approximately 24 hours apart. Twenty-four hours after the last dose, blood was collected from the severed neck and the concentration of serum calcium determined as a measure of bone calcium mobilization. The first 10 cm of the intestine was also collected for intestinal calcium transport analysis using the everted gut sac method.
(§2) Antagonism was tested by administering a combination of 1,25(OH)2D3 and the putative antagonist to the animal simultaneously.

HL-60 cells = test: HL-60 differentiation (nitro blue tetrazolium reduction); assay type: cell-based, human; conditions: for EC50: Homo sapiens, HL-60; for HL-60 cell differentiation activity: compound alone; for HL-60 Differentiation (Relative Activity): native hormone value / working example value, same assay
Procedure: The study drugs were dissolved in ethanol and the concentrations determined using UV spectrophotometry. Serial dilutions were prepared so that a range of drug concentrations could be tested without changing the final concentration of ethanol (≦0.2%) present in the cell cultures.
Human promyelocytic leukemia (HL60) cells were grown in RPMI-1640 medium containing 10% fetal bovine serum. The cells were incubated at 37° C. in the presence of 5% CO2.
HL60 cells were plated at 1.2×10^5 cells/ml. Eighteen hours after plating, cells in duplicate were treated with the drug. Four days later, the cells were harvested and a nitro blue tetrazolium reduction assay was performed (Collins et al., 1979; J. Exp. Med. 149:969-974). The percentage of differentiated cells was determined by counting a total of 200 cells and recording the number that contained intracellular black-blue formazan deposits. Verification of differentiation to monocytic cells was determined by measuring phagocytic activity (data not shown).
Antagonism was tested by adding a combination of 1,25(OH)2D3 and the putative antagonist in the same well keeping the final ethanol concentration the same.

[2] = test system: 24-hydroxylase (24OHase) gene promoter; test: In vitro 24-hydroxylase transcription assay (luciferase reporter, ROS 17/2.8 bone cells); assay type: cell-based; conditions: for Antagonism of gene transactivation stimulated by native hormone: combined with 1,25(OH)2D3; for 24OHase Transcription (Relative Activity): native hormone value / working example value, same assay
Procedure: Transcription activity was measured in ROS 17/2.8 (bone) cells that were stably transfected with a 24-hydroxylase (24OHase) gene promoter upstream of a luciferase reporter gene (Arbour et al., 1998). Cells were given a range of doses. Sixteen hours after dosing, the cells were harvested and luciferase activities were measured using a luminometer. RLU=relative luciferase units.

vitamin D receptor [3] = target: T1, vitamin D receptor (Rattus norvegicus, UniProt P13053); test: Competitive vitamin D receptor binding; conditions: for Competitive VDR Binding (Relative Activity): native hormone value / working example value, same assay; for Competitive VDR Binding (Relative Activity) / Ki: present compounds; for Ki: read-out: Competitive VDR Binding, Ki; for Binding to the nuclear vitamin D receptor compared with native hormone: versus 1,25(OH)2D3; for VDR binding activity relative to CN-67 (ratio of relative activities): versus CN-67
T1 construct: Full-length recombinant rat receptor was expressed in E. coli; His tag (C); made in house; host or cells: E. coli BL21(DE3) Codon Plus RIL
T1 sequence (P13053 1-423): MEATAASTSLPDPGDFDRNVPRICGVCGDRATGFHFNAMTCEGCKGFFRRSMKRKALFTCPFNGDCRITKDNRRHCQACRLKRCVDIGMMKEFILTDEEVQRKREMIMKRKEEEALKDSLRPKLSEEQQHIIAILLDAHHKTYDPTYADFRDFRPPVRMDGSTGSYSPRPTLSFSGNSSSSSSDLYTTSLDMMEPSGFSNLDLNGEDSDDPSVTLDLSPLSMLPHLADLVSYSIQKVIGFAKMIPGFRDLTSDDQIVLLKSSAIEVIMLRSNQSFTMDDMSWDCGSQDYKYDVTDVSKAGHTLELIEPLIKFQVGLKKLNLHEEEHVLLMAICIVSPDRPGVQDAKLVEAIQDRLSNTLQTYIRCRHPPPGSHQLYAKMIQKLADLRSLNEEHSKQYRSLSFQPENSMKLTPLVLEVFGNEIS
Procedure: Full-length recombinant rat receptor was expressed in E. coli BL21(DE3) Codon Plus RIL cells and purified to homogeneity using two different column chromatography systems. The first system was a nickel affinity resin that utilizes the C-terminal histidine tag on this protein. The protein that was eluted from this resin was further purified using ion exchange chromatography (S-Sepharose Fast Flow). Aliquots of the purified protein were quick frozen in liquid nitrogen and stored at −80° C. until use. For use in binding assays, the protein was diluted in TEDK50 (50 mM Tris, 1.5 mM EDTA, pH 7.4, 5 mM DTT, 150 mM KCl) with 0.1% Chaps detergent. The receptor protein and ligand concentration was optimized such that no more than 20% of the added radiolabeled ligand was bound to the receptor.
Unlabeled ligands were dissolved in ethanol and the concentrations determined using UV spectrophotometry (1,25(OH)2D3: molar extinction coefficient=18,200 and λmax=265 nm; Analogs: molar extinction coefficient=42,000 and λmax=252 nm). Radiolabeled ligand (^3H-1,25(OH)2D3, ˜159 Ci/mmole) was added in ethanol at a final concentration of 1 nM.
Radiolabeled and unlabeled ligands were added to 100 mcl of the diluted protein at a final ethanol concentration of ≦10%, mixed and incubated overnight on ice to reach binding equilibrium. The following day, 100 mcl of hydroxylapatite slurry (50%) was added to each tube and mixed at 10-minute intervals for 30 minutes. The hydroxylapaptite was collected by centrifugation and then washed three times with Tris-EDTA buffer (50 mM Tris, 1.5 mM EDTA, pH 7.4) containing 0.5% Titron X-100. After the final wash, the pellets were transferred to scintillation vials containing 4 ml of Biosafe II scintillation cocktail, mixed and placed in a scintillation counter. Total binding was determined from the tubes containing only radiolabeled ligand.

Sprague-Dawley rats [4] = test: Intestinal calcium transport (everted gut sac); assay type: in vivo, rat; conditions: for Intestinal calcium transport activity compared with native hormone: rat, intraperitoneal; for Intestinal calcium transport activity at very high doses: very high doses (e.g., 2340-2600 pmol)
Procedure: as §1, §2

vitamin D receptor [5] = target: T1, vitamin D receptor; conditions: compounds of U.S. Pat. No. 7,915,242; read-out: Competitive VDR Binding, Ki; cited from earlier work
[6] = combined with 1,25(OH)2D3, systemic administration
[7] = when administered with 1,25(OH)2D3, present compounds

| Structure (SMILES) | Bone calcium mobilization activity (Sprague-Dawley rats [1]) | EC50 (HL-60 cells; present compounds) | HL-60 cell differentiation activity (HL-60 cells) | HL-60 Differentiation (Relative Activity) (HL-60 cells; present compounds) | Antagonism of gene transactivation stimulated by native hormone [2] | 24OHase Transcription (Relative Activity) ([2]; present compounds) | EC50 ([2]; present compounds) | Competitive VDR Binding (Relative Activity) (vitamin D receptor [3]) | Ki (vitamin D receptor [3]) | Binding to the nuclear vitamin D receptor compared with native hormone (vitamin D receptor [3]) | VDR binding activity relative to CN-67 (ratio of relative activities) (vitamin D receptor [3]) | Intestinal calcium transport activity compared with native hormone (Sprague-Dawley rats [4]) | Intestinal calcium transport activity at very high doses (Sprague-Dawley rats [4]) | Ki (vitamin D receptor [5]) | further results |
| --- | --- | --- | --- | --- | --- | --- | --- | --- | --- | --- | --- | --- | --- | --- | --- |
| C=C1[C@H](O)CC(=C/C=C2\CCC[C@]3(C)[C@@H]([C@H](C)/C=C/[C@@H](O)C4(C(=O)SCCCC)CC4)CC[C@@H]23)C[C@H]1O [AS-51, (20R,22E,24R)-25-carbobutylsulfanyl-2-methylene-26,27-cyclo-22-dehydro-1α,24-dihydroxy-19-norvitamin D3] | essentially inactive in releasing bone calcium stores; also recorded: neither PP-48 nor AS-51 demonstrate any appreciable ability to mobilize calcium from bone | > 1000 nM | does not effectively promote cellular differentiation | 0.002 | can inhibit gene transactivation stimulated by the native hormone; also recorded: antagonistic activity; also recorded: inhibits gene transactivation stimulated by the native hormone | 0.02 | 6 nM | 1.0 | 0.1 nM | same potency as the native hormone; also recorded: bind the vitamin D receptor | ≈ 67 times | somewhat less active than 1,25(OH)2D3 in stimulating intestinal calcium transport at very high doses; also recorded: potency less than that of the native hormone at low doses | increased intestinal calcium transport activity at very high doses | – | In vivo antagonism in combination with native hormone (bone calcium mobilization) (Sprague-Dawley rats [1]; [6]): no antagonism was observed; Concentrations showing inhibition of cellular differentiation (HL-60 cells; antagonist mode): 10^−8-10^−7 M; Inhibition of native hormone-induced HL-60 differentiation (HL-60 cells; combined with 1,25(OH)2D3): potent inhibitor of the native hormone; also recorded: antagonistic activity; HL-60 potency relative to CN-67 (ratio of relative activities) (HL-60 cells; versus CN-67): ≈ 0.03; HL-60 potency relative to OU-72 (ratio of relative activities) (HL-60 cells; versus OU-72): ≈ 0.007; HL-60 Differentiation, antagonism (HL-60 cells; [7]): Antagonistic; Concentrations showing inhibition of gene transactivation ([2]; antagonist mode): 10^−8-10^−7 M; Times less potent than native hormone in increasing transcription of the 24-hydroxylase gene ([2]; bone cells, versus 1,25(OH)2D3): ~60 times; 24-hydroxylase transcription potency relative to CN-67 (ratio of relative activities) ([2]; versus CN-67, bone cells): ≈ 3; 24-hydroxylase transcription potency relative to OU-72 (ratio of relative activities) ([2]; versus OU-72, bone cells): 2; 24OHase Transcription, antagonism [2, 7]: Antagonistic; In vivo antagonism in combination with native hormone (intestinal calcium transport) (Sprague-Dawley rats [4]; [6]): no antagonism was observed |
| C=C1C(O)CC(=CC=C2CCCC3(C)C2CCC3C(C)C=CC(OCCCC)C2(C(=O)OCCCC)CC2)CC1O [CN-67, (22E)-(24R)-24-butoxy-25-carbobutoxy-2-methylene-26,27-cyclo-22-dehydro-1α-hydroxy-19-norvitamin D3] | – | – | – | – | – | – | – | – | – | – | – | – | – | 1.5 nM | – |
| C=C1C(O)CC(=CC=C2CCCC3(C)C2CCC3C(C)C=CC(O)C2(C(=O)OCCCC)CC2)CC1O [OU-72, (22E)-(24R)-25-carbobutoxy-2-methylene-26,27-cyclo-22-dehydro-1α,24-dihydroxy-19-norvitamin D3] | – | – | – | – | – | – | – | – | – | – | – | – | – | 0.023 nM | – |
| C=C1[C@H](O)CC(=C/C=C2\CCC[C@]3(C)[C@@H]([C@H](C)/C=C/C(=O)C4(C(=O)CCC(C)C)CC4)CC[C@@H]23)C[C@H]1O [PP-48, (20R,22E)-2-methylene-25-(4-methylpentanoyl)-24-oxo-26,27-cyclo-22-dehydro-1α-hydroxy-19-norvitamin D3] | essentially no ability to mobilize calcium from bone; also recorded: essentially inactive in releasing bone calcium stores; also recorded: neither PP-48 nor AS-51 demonstrate any appreciable ability to mobilize calcium from bone | 30 nM | agonistic behavior; also recorded: active in causing HL-60 differentiation | 0.1 | no antagonistic activity | 0.1 | 2 nM | 0.17 | 0.6 nM | lower affinity relative to 1,25(OH)2D3; also recorded: lower affinity than the native hormone; also recorded: bind the vitamin D receptor | ≈ 11 times | potency similar to that of the native hormone | increased intestinal calcium transport activity at very high doses | – | 24-hydroxylase transcription activity ([2]; compound alone): agonistic behavior; also recorded: exhibits activity in 24-hydroxylase transcription, albeit reduced from the native hormone; Intestinal calcium transport activity at moderate doses (Sprague-Dawley rats [4]; moderate doses): only PP-48 increased such transport significantly at moderate doses |
